Broadly, the IC50 is the concentration that inhibits the measured activity by half.

Drawing on patent US20260137697A1, “THIAZOLO[5,4-D]PYRIMIDINE COMPOUNDS, COMPOSITIONS COMPRISING THEM AND USES THEREOF” (University de Montreal, priority 2022, published 2026), this text covers IC50 and EC50 for 2 compounds.

One test concerns the target T1, CRAF (Homo sapiens, UniProt P04049).
T1 construct: fused on or other part: GST tag (N-terminal according to the vendor's product)
As to the kind of experiment: CRAF kinase activity assay (ADP-Glo). It is filed as biochemical. To be noted: Table 3; 10 μM ATP, kinase-dead MEK1 substrate. A digest of the protocol:
(§1)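 GST-tagged kinase (0.375 nM) with 75 nM kinase-dead MEK1 and 10 μM ATP in HEPES pH 7.5 buffer, 2 h at 30° C, nine concentrations 100–0.01 nM, 0.05% DMSO. ADP-Glo luminescence; % inhibition vs DMSO and substrate-only blanks, IC50 by four-parameter fit.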
On the technique in general: In ADP-Glo the light output rises with the ADP produced.

A further test deals with A101D cells. As to the kind of experiment: Proliferation inhibition, CellTiter-Glo, A101D. Type of test: cell-based, human. To be noted: Table D-1; A101D (BRAF V600E), 3 days; read-out: Prolif. (proliferation EC50). Here is the method:
All cancer cell lines (A375, A101D, A2058, RKO, HT29 SK-MEL 30, IPC298, HepG2, HCT-116, Lovo, SW620, SW480, NCI-H358, NCI-H2122, Calu-6, NCIH2087, NCIH1755, NCIH1666 and Mewo) were obtained from ATCC and cultured in RPM1-1640 medium (Gibco) supplemented with 5% heat inactivated fetal bovine serum (FBS, Wisent) at 37° C. under 5% CO2. Cells were maintained in T175 flasks (Greiner). They were passaged by removing the culture medium, washing once in 10 mL of room temperature Phosphate Buffered Saline (PBS; Wisent) and incubating at 37° C. with 2 mL of 0.05% Trypsin (Thermo-Fisher). […]
After 3 days of incubation, the growth media were removed by aspiration and 60 μL of diluted CellTiter-Glo® reagent (10 μL CellTiter-Glo® reagent+50 μL of PBS) was added to each well. […] Luminescence signals were then acquired on a Synergy Neo2 plate reader (Biotek).
The effect of each compound dilution on the proliferation of cancer cell lines was expressed in % inhibition and calculated as follows. […]
The ability of each compound to inhibit proliferation was expressed as a EC50 value obtained by plotting the effect values for each data point of a dilution series and fitting the obtained curves using a log(agonist) versus response—variable slope (four parameters) function using GraphPadPrism (V7.0) or Dotmatics Screening Ultra platform.
(In general: Cellular ATP, detected with luciferase, serves as a proxy for viable cell number.)

The target in a further test is T2, BRAF (Homo sapiens, UniProt P15056).
T2 construct: GST; purchased Millipore Sigma B4062-10UG
The test can be described thus: BRAF kinase activity assay (ADP-Glo). Type of test: biochemical. To be noted: Table 3; 10 μM ATP, kinase-dead MEK1 substrate. Summed up: as §1

T2 sequence (P15056 whole entry): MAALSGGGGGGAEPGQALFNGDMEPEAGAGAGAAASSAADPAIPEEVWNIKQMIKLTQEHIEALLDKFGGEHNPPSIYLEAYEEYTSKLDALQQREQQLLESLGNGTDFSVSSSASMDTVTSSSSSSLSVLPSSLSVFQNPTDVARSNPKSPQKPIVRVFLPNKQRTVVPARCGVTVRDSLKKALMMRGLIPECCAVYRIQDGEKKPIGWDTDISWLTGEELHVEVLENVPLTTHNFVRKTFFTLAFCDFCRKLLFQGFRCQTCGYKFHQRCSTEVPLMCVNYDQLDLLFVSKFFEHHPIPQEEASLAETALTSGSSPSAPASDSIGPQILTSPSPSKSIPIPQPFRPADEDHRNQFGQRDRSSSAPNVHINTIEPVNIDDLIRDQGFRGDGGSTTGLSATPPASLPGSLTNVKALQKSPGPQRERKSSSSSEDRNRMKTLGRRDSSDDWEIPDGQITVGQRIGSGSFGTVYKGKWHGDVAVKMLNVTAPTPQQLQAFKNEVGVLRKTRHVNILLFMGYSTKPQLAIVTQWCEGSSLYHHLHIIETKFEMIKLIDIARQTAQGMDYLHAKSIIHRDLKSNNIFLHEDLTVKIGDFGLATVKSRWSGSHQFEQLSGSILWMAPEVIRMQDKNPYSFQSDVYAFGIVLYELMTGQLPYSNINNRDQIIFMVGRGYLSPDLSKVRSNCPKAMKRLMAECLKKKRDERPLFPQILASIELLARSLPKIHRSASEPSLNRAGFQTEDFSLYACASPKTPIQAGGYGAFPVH
T1 sequence (P04049 whole entry Y340E/Y341E, form open, the tested form may be a part): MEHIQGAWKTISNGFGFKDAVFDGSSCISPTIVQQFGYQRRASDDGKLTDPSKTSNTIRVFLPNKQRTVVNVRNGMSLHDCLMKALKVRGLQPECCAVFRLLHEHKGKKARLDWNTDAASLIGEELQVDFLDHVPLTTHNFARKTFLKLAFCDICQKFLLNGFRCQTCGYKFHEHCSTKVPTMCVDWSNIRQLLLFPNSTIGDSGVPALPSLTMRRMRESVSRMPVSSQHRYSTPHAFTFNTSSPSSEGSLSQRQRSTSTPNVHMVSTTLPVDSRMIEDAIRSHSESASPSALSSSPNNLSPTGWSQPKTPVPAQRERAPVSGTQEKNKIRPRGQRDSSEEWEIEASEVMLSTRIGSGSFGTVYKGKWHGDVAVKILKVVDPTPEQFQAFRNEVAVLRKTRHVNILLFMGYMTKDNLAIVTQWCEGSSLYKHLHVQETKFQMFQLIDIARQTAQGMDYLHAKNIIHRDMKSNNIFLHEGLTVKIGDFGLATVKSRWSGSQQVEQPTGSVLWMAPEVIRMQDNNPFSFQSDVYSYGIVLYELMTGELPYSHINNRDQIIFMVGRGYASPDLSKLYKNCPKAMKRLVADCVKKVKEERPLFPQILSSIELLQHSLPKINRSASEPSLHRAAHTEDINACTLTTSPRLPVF

Consider `Cc1c(F)cccc1S(=O)(=O)Nc1ccc(F)c(Nc2ncnc3sc(-n4cc(C(=O)N5C6CCC5CN(C)C6)c5ccccc54)nc23)c1F` [Example 44], for which the IC50 on CRAF is less than 10 nM; on BRAF it was less than 1 nM. In addition, the EC50 in the test on A101D cells is less than 300 nM.

For the compound `N#CC1(c2cccc3c2ncn3-c2nc3c(Nc4c(F)ccc(NS(=O)(=O)c5cccc(Cl)c5Cl)c4F)ncnc3s2)CC1` [Example 122], the results for the IC50 on CRAF and at BRAF were less than 10 nM and 1 to 10 nM, respectively. Besides, the EC50 in the test with A101D cells was less than 300 nM.
